Patent publication US5430018A, “Cyclohexapeptide with basic nitrogen containing alkylamide groups” (priority 1991, dated 1995)
Values after ≈ are worked out from the molar mass of the structure shown. Numbered stars: 1 amine (or outer) side, 2 acyl side, 3 side chain; on linkers, the order of the positions; unused ones are H or OH. Bridge positions count the residues as written; N and C are the ends. Square brackets hold non-standard residues; d marks the D form. Peptide text beside a SMILES is read from it. * marks the point of attachment. Tetradecanoyl(10R,12S-Me2) = CC[C@H](C)C[C@H](C)CCCCCCCCC(=O)*; Orn(4R-OH) = O=C([C@H](C[C@@H](O)CN[*:3])N[*:1])[*:2]; hTyr(3R-OH) = N[C@H](C(=O)O)[C@H](O)Cc1ccc(O)cc1; X1 = COC(=O)C[C@@H](O)[C@H](N[*:1])C(=O)[*:2]; X2 = O=C(O)C[C@@H](O)[C@H](N[*:1])C(=O)[*:2]; Pro(3S-OH) = O=C(O)[C@H]1NCC[C@@H]1O; Hyp = O=C(O)[C@@H]1C[C@@H](O)CN1

Columns and labels:
C. albicans MY 1055 = format: cell-based, Candida albicans; details: MY 1055, 24 h
Method: The compounds of the present invention are active against many fungi and particularly against Candida species. The antifungal properties maybe illustrated with the minimum fungicidal concentration (MFC) determination against certain Candida organisms in a microbroth dilution assay carried out in a Yeast Nitrogen Base (Difco) medium with 1% dextrose (YNBD). In separate assays, the compounds (all Seq. ID No. 1) were solubilized in 10% dimethyl sulfoxide (DMSO) and diluted to 2560 μg/ml. The solution was then diluted to 256 μg/ml in YNBD and dispensed via a multichannel pipetter into the top row of a 96-well plate (each well containing 0.15 ml of YNBD), resulting in a drug concentration of 128 μg/ml. Compounds in the top row were diluted 2-fold down the columns yielding final drug concentrations ranging from 128-0.06 μg/ml. All tests were performed in duplicate. A four-hour broth culture of C. albicans MY 1055 was adjusted using a spectrophotometer at 530 nm to equal a 0.5 McFarland Standard. This yields a cell concentration of 1-5×10^6 colony forming units (CFU)/ml. The 96-well microplates were inoculated using an MIC-2000 (Dynatech), which delivers […] per well, yielding a final inoculum per well of 1.5-7.5×10^3 cells. One column per tray containing drug-free growth control wells was included. […]

C. albicans MY 1028 = format: cell-based, Candida albicans; details: MY 1028, 24 h

CC[C@H](C)C[C@H](C)CCCCCCCCC(=O)N[C@H]1C[C@@H](O)CNC(=O)[C@@H]2[C@@H](O)CCN2C(=O)[C@H]([C@H](O)CC(=O)O)NC(=O)[C@H]([C@H](O)Cc2ccc(O)cc2)NC(=O)[C@@H]2C[C@@H](O)CN2C(=O)[C@H]([C@@H](C)O)NC1=O [acid] ({Tetradecanoyl(10R,12S-Me2)}-[Orn(4R-OH)]T[Hyp][hTyr(3R-OH)][X2][Pro(3S-OH)]; lactam 1-C)
MFC C. albicans MY 1055 (C. albicans MY 1055): 0.5 µg/mL (≈ 0.483 µM)
MFC C. albicans MY 1028 (C. albicans MY 1028): 1 µg/mL (≈ 0.967 µM)

CC[C@H](C)C[C@H](C)CCCCCCCCC(=O)N[C@H]1C[C@@H](O)CNC(=O)[C@@H]2[C@@H](O)CCN2C(=O)[C@H]([C@H](O)CC(=O)OC)NC(=O)[C@H]([C@H](O)Cc2ccc(O)cc2)NC(=O)[C@@H]2C[C@@H](O)CN2C(=O)[C@H]([C@@H](C)O)NC1=O [methyl ester] ({Tetradecanoyl(10R,12S-Me2)}-[Orn(4R-OH)]T[Hyp][hTyr(3R-OH)][X1][Pro(3S-OH)]; lactam 1-C)
MFC C. albicans MY 1055 (C. albicans MY 1055): 0.5 µg/mL (≈ 0.477 µM)
MFC C. albicans MY 1028 (C. albicans MY 1028): 0.25 µg/mL (≈ 0.238 µM)
